According to patent publication US20070155779A1, “BICYCLIC HETEROARYL COMPOUNDS AS PDE10 INHIBITORS” (Pfizer Inc, priority 2006, published 2007):

Molecular target: PDE10 (Homo sapiens, UniProt Q9Y233)
Experiment: PDE10 inhibition, Scintillation Proximity Assay (SPA)
Format: biochemical
Details: substrate at 1/3 Km, IC50 approximates Ki
Experimental: Assay methods are available to screen a substance for inhibition of cyclic nuticleotide hydrolysis by the PDE10 and the PDEs from other gene families. The cyclic nucleotide substrate concentration used in the assay is ⅓ of the Km concentration, allowing for comparisons of IC50 values across the different enzymes. PDE activity is measured using a Scintillation Proximity Assay (SPA)-based method as previously described (Fawcett et al., 2000), The effect of PDE inhibitors is determined by assaying a fixed amount of enzyme (PDEs 1-11) in the presence of varying substance concentrations and low substrate, such that the IC50 approximates the Ki (cGMP or cAMP in a 3:1 ratio unlabelled to [^3H]-labeled at a concentration of ⅓ Km).). The final assay volume is made up to 100 μl with assay buffer [20 mM Tris-HCl pH 7.4, 5 mM MgCl2, 1 mg/ml bovine serum albumin]. Reactions are initiated with enzyme, incubated for 30-60 min at 30° C. to give <30% substrate turnover and terminated with 50 μl yttrium silicate SPA beads (Amersham) (containing 3 mM of the respective unlabelled cyclic nucleotide for PDEs 9 and 11). Plates are re-sealed and shaken for 20 min, after which the beads were allowed to settle for 30 minutes in the dark and then counted on a TopCount plate reader (Packard, Meriden, Conn.).

Chain of PDE10 (Q9Y233 whole entry): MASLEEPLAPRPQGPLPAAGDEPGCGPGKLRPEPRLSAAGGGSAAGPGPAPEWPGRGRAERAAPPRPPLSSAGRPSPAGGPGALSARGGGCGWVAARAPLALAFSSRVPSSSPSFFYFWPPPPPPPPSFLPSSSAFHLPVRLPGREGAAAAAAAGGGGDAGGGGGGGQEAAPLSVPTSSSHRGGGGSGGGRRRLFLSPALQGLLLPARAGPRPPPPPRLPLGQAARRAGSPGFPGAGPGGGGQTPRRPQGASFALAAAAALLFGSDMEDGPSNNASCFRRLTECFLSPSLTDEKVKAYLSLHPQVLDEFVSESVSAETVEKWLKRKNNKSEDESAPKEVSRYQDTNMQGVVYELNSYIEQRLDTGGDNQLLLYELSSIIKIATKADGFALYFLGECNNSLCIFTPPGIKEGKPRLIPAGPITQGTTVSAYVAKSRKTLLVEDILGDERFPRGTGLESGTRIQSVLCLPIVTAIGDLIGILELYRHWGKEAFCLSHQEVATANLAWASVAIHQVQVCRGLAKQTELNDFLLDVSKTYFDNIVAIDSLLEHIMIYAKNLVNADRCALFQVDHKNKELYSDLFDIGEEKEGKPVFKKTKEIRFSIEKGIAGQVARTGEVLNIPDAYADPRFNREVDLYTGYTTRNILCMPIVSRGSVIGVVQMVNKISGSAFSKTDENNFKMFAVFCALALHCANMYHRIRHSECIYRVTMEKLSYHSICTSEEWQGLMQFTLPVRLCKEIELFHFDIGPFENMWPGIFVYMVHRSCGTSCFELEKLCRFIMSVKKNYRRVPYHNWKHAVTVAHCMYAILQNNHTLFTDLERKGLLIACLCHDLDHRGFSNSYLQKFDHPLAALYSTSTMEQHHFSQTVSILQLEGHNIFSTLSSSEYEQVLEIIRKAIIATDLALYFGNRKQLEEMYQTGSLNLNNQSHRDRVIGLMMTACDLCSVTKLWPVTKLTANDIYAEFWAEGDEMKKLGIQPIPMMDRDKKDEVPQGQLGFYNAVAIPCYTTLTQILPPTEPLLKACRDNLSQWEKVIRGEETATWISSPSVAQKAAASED

IC50 [nM] | Compound
79 | Cn1c(COc2ccc(-c3n[nH]cc3-c3ccncc3)cc2)nc2ccccc21 [Example 1, 1-Methyl-2-[4-(4-pyridin-4-yl-1H-pyrazol-3-yl)-phenoxymethyl]-1H-benzoimidazole]
1.38 | CCn1cc(-c2ccncc2)c(-c2ccc(OCc3nc4ccccc4n3C)cc2)n1 [Example 2, 2-[4-(1-Ethyl-4-pyridin-4-yl-1-H-pyrazol-3-yl)-phenoxylmethyl]-1-methyl-1-1H-benzoimidazole]
2.6 | C[C@@H](O)Cn1cc(-c2ccncc2)c(-c2ccc(OCc3nc4ccccc4n3C)cc2)n1 [Example 3, 1-{3-[4(1-Methyl-1H-benzoimidazol-2-ylmethoxy)-phenyl]-4-pyridin-4-yl-pyrazol-1-yl)-propan-2-ol]
4.94 | Cn1c(COc2ccc(-c3oncc3-c3ccncc3)cc2)nc2ccccc21 [Example 4, 1-Methyl-2-[4-(4-pyridin-4-yl-isoxazol-5-yl)-phenoxymethyl]-1-H-benzoimidazole]
0.56 | Cn1cc(-c2ccncc2)c(-c2ccc(OCc3nc4ccccc4n3C)cc2)n1 [Example 5, 1-Methyl-2-[4-(1-methyl-4-pyridin-4-yl-1H-pyrazol-3-yl)-phenoxymethyl]-1-H-benzoimidazole]
1.84 | Cn1ncc(-c2ccncc2)c1-c1ccc(OCc2nc3ccccc3n2C)cc1 [Example 6, 1-Methyl-2-[4-(2 methyl-4-pyridin-4-yl-2H-pryazol-3-yl)-phenoxymethyl]-1H-benzoimidazole]
0.98 | Cn1cc(-c2ccncc2)c(-c2ccc(OCc3nc4ccccc4n3CF)cc2)n1 [Example 7, 1-Fluoromethyl-2-[4-(1-methyl-4-pyridin-4-yl-1H-pyrazol-3-yl)-phenoxymethyl]-1H-benzoimidazole]
8.91 | CC(C)n1c(COc2ccc(-c3nn(C)cc3-c3ccncc3)cc2)nc2ccccc21 [Example 8, 1-Isopropyl-2-[4-(1-methyl-4-pyridin-4-yl-1H-pyrazol-3-yl)-phenoxymethyl]-1H-benzoimidazole]
0.69 | Cn1cc(-c2ccncc2)c(-c2ccc(OCc3nc4ccccc4n3C3CC3)cc2)n1 [Example 9, 1-Cyclopropyl-2-[4-(1-methyl-4-pyridin-4-yl-1H-pyrazol-3-yl)-phenoxymethyl]-1-H-benzoimidazole]
1.6 | COCCn1c(COc2ccc(-c3nn(C)cc3-c3ccncc3)cc2)nc2ccccc21 [Example 10, 1-(2-Methoxy-ethyl)-2[4-(1-methyl-4-pyridin-4-yl-1H-pyrazol-3-yl)-phenoxymethyl]-1H-benzoimidazole]
0.53 | Cn1cc(-c2ccncc2)c(-c2ccc(OCc3cn4ccccc4n3)cc2)n1 [Example 11, 2-[4-(1-Methyl-4-pyridin-4yl-1H-pyrazol-3-yl)-phenoxymethyl]-imidazo[1,2-a]pyridine]
0.53 | Cn1ncc(-c2ccncc2)c1-c1ccc(OCc2cn3ccccc3n2)cc1 [Example 12]
1.14 | Cn1cc(-c2ccncc2)c(-c2ccc(OCc3nc4ccccn4n3)cc2)n1 [Example 13, 2-[4-(1-Methyl-4-pyridin-4-yl-1H-pyrazol-3-yl)-phenoxymethyl]-[1,2,4]triazolo[1,5-a]-pyridine]
0.56 | FC(F)(F)Cn1cc(-c2ccncc2)c(-c2ccc(OCc3nc4ccccn4n3)cc2)n1 [Example 14, 2-{4-[4-Pyridin-4-yl-1-(2,2,2-trifluoro-ethyl)-1-H-pyrazol-3-yl]-phenoxymethyl}-[1,2,4]triazolo[1,5-a]pyridine]
0.39 | FC(F)(F)Cn1cc(-c2ccncc2)c(-c2ccc(OCc3cn4ccccc4n3)cc2)n1 [Example 15]
0.21 | Cn1c(COc2ccc(-c3nn(CC(F)(F)F)cc3-c3ccncc3)cc2)nc2ccccc21 [Example 16, 1-Methyl-2-{4-[4-pyridin-4-yl-1-(2,2,2-trifluoro-ethyl)-1H-pyrazol-3yl]-phenoxymethyl}-1H-benzoimidazole]

IC50 [nM] | Compound
0.75 | FCn1c(COc2ccc(-c3nn(CC(F)(F)F)cc3-c3ccncc3)cc2)nc2ccccc21 [Example 17, 1-Fluoromethyl-2-{4-[4-pyridin-4-yl-1-(2.2.2-trifluoro-ethyl)-1-H-pyrazol-3-yl]-phenoxymethyl}-1H-benzoimidazole]
9.31 | Cn1cc(-c2ccncc2)c(-c2ccc(OCc3nc4ncccc4n3C)cc2)n1 [Example 18]
133 | Cn1cc(-c2ccncc2)c(-c2ccc(OCc3nc4cnccc4n3C)cc2)n1 [Example 19, 1-Methyl-2-[4-(1-methyl-4-pyridin-4-yl-1H-pyrazol-3-yl)-phenoxymethyl]-1-H-imidazo[4,5-c]pyridine]
16.7 | Cn1cc(-c2ccncc2)c(-c2ccc(OCc3nc4cc(F)c(F)cc4n3C)cc2)n1 [Example 20, 5,6-Difluoro-1-methyl-2-[4-(1-methyl-4-pyridin-4-yl-1H-pyrazol-3-yl)-phenoxymethyl]-1H-benzoimidazole]
0.89 | Cn1cc(-c2ccncc2)c(-c2ccc(OCc3nc4ccccc4s3)cc2)n1 [Example 21, 2-[4-(1-Methyl-4-pyridin-4-yl-1H-pyrazol-3-yl)-phenoxymethyl]-benzothiazole]
1.48 | FC(F)(F)Cn1cc(-c2ccncc2)c(-c2ccc(OCc3nc4ccccc4s3)cc2)n1 [Example 22, 2-{4-[4-Pyridin-4-yl-1-(2,2 2-trifluoro-ethyl)-1H-pyrazol-3-yl]-phenoxymethyl}-benzothiazole]
3.09 | Cn1cc(-c2ccncc2)c(-c2ccc(OCc3nc4cccc5c4n3CCC5)cc2)n1 [Example 23, 2-[4-(1-Methyl-4-pyridin-4-yl-1H-pyrazol-3-yl)-phenoxymethyl]-5,6-dihydro-4H-imidazo[4,5,1-ij]quinoline]
1.4 | Cc1c(COc2ccc(-c3nn(C)cc3-c3ccncc3)cc2)nc2ccccn12 [Example 24, 3-Methyl-2-[4-(1-methyl-4-pyridin-4-yl-1H-pyrazol-3-yl)-phenoxymethyl]-imidazo[1,2-a]pyridine]
10 | Cn1cc(-c2ccncc2)c(-c2ccc(OCc3nc4ccccc4n3CC(F)(F)F)cc2)n1 [Example 25, 2-[4-(1-Methyl-4-pyridin-4-yl-1H-pyrazol-3-yl)-phenoxymethyl]-1-(2,2,2trifluoro-ethyl)-1H-benzoimidazole]
3.05 | Cn1c(COc2ccc(-n3nccc3-c3ccncc3)cc2)nc2ccccc21 [Example 26, 1-Methyl-2-[4-(5-pyridin-4-yl-pyrazol-1-yl)-phenoxymethyl]-1H-benzoimidazole]
16.2 | Cn1cc(-c2ccncc2)c(-c2ccc(CCc3nc4ccccc4n3C)cc2)n1 [Example 27, 1-Methyl-2{2-[4-(1methyl-4-pyridin-4-yl-1H-pyrazol-3-yl)-phenyl]-ethyl}-1H-benzoimidazole]
46.3 | Cn1c(COc2ccc(-c3nncn3-c3ccncc3)cc2)nc2ccccc21 [Example 28, 1-Methyl-2[4-(4-pyridin-4-yl-4H-[1,2,4]triazol-3-yl)-phenoxymethyl]-1H-benzoimidazole]
12 | Cn1cc(-c2ccncc2)c(-c2ccc(OCc3cn4ccsc4n3)cc2)n1 [Example 32, 6-[4-(1-Methyl-4-pyridin-4-yl-1H-pyrazol-3-yl)-phenoxymethyl]-imidazo[2,1-b]thiazole]
28.8 | Cn1c(COc2ccc(-n3ccnc3-c3ccncc3)cc2)nc2ccccc21 [Example 37, 2-((4-(2-(pyridin-4-yl)-1H-imidazol-1-yl)phenoxy)methyl)-1-methyl-1H-benzo[d]imidazole]
8.82 | Oc1ccc(-n2ccnc2-c2ccncc2)cc1 [Preparation 37, 4-(2-(pyridin-4-yl)-1H-imidazol-1-yl)phenol]
